Results on 14 molecules are retold here after patent US20110046105A1, “Heterocycle-substituted imidazolidine-2,4-diones, process for preparation thereof, medicaments comprising them and use thereof” (SANOFI-AVENTIS, priority 2008, published 2011).

By Ki is commonly meant the equilibrium dissociation constant of an inhibitor or competing ligand from its target. A low value points to tighter binding. As a reminder, the IC50 is the point on the concentration scale where inhibition reaches its midpoint.

For experiment [1], the target named is T1, cannabinoid CB1 receptor (CB1) (Mus musculus, UniProt P47746).
T1 construct: from tissue; host or cells: whole animal (female NMRI mice)
As to the kind of experiment: Antagonization of CB1-mediated hypothermia. The format is in vivo. The note with it: female NMRI mice; 1.25 mg/kg intraperitoneally; within 30 min. On the procedure: The test is used to measure the potency of cannabinoid CB1 receptor (CB1) antagonists. What is measured is the extent to which the CB1 antagonists to be tested are capable of preventing or of antagonizing hypothermia induced by a CB1 agonist.
Female NMRI mice, 25-35 g in weight, are used. The mice are accustomed to the housing conditions for at least one week.
At time 0 min, the animals are treated orally, intravenously or intraperitoneally with the CB1 antagonist to be tested. 30 min later, the CB1 agonist CP55.940, 1.25 mg/kg, is administered to the mice intraperitoneally. This brings about a fall in the body temperature by 5-6° C. within 30 min. The body temperature is measured rectally for the first time 30 min before the test substance administration and then every 30 min after this administration, if appropriate immediately before a substance administration, over 4 hours.
The potency of the test substances is reported as the percentage decrease in the area under the temperature-time curve which is formed firstly by the average basal temperature, and secondly by the temperature-time curve, of the animals treated exclusively with the CB1 antagonist.

For experiment [2], the target named is T2, hCB1R (Homo sapiens, UniProt P21554). Put plainly: Binding to the CB1 receptor ([3H]-SR141716A displacement). On the set-up: expressed in transfected cells; host or cells: CHO-K1. The following applies: CHO-K1/cannabinoid CB1 protein; ligand [3H]-SR141716A 0.5 nM; Ki from IC50 by Cheng-Prusoff. As for the experimental part: Test compounds: The compounds (3 μl, 10 mM, 100% DMSO), pipetted into 96-well PP microtiter plates, were diluted with 27 μl of 100% DMSO (dimethyl sulfoxide). Proceeding from this solution, further 3-fold dilution steps were undertaken by transferring 10 μl in each case to a new PP microtiter plate and adding a further 20 μl of 100% DMSO. In each case 6 μl of these solutions were transferred into new 96-well PP microtiter plates and made up with 144 μl of assay buffer. The end concentrations ranged from 10 μM to 0.005 μM.
Negative control: AM 251, dissolved in assay buffer with 1% DMSO, was added to the dilution series in the microtiter plates as a control. The end concentration was 1 μM.
Blank control: assay buffer with 1% DMSO was added to the dilution series of the microtiter plates as a blank control.
High control: ^3H binding without addition of the compound
Low control: ^3H binding in the presence of 1 μM AM 251
The values were calculated using the corrected raw data.
The values reported were obtained as average values of a double determination. The IC50 values were calculated from the measurements with the program Xlfit, formula 205. Ki values were obtained from the IC50 and Kd values utilizing the Cheng-Prusoff equation: […]
Literature: Cheng, Y.-C., and Prusoff, W. H. (1973) Biochem. Pharmacol 22, 3099-3108

For a further experiment, the target named is T3, hCB2R (Homo sapiens, UniProt P34972).
T3 construct: expressed in transfected cells; host or cells: HEK293
As to the kind of experiment: In vitro functional assay with recombinant cells (FLIPR), cannabinoid 2 receptor. The note with it: recombinant HEK293 cells expressing CB2 and G-protein Galpha16; intracellular Ca2+ change against reference agonist. The experiment is classed as cell-based. As for the experimental part: (§1) Function-testing assays were performed by means of the FLIPR technique (“Fluorometric Imaging Plate Reader”, Molecular Devices Corp.).
(§2) To this end, ligand-induced changes in the intracellular concentration of Ca^2+ in recombinant HEK293 cells, which expressed both a cannabinoid receptor (CB1 or CB2) and G-protein Galpha16, were determined. For the studies, cells were sown into 96-well microtiter plates (60 000 cells/well) and left to grow overnight. The medium was removed and the cells were incubated in buffer which contained the fluorescent dye Fluo-4. After this loading with dye, the cells were washed, test substance was added dissolved in buffer, the mixture was incubated for 20 minutes, a known cannabinoid receptor agonist as a reference agonist was added in buffer and, finally, the changes in the intracellular Ca^2+ concentration were measured in the FLIPR unit.
Results were presented as the percentage change relative to the control (0%: analogous experiment without test substance and without reference agonist, i.e. only with buffer; 100%: analogous experiment without test substance, but with reference agonist in excess), and used to calculate dose/action curves, and IC50 values were determined. […]

Experiment [3] deals with T2, hCB1R. Put plainly: In vitro functional assay with recombinant cells (FLIPR), cannabinoid 1 receptor. The experiment is classed as cell-based. Details: expressed in transfected cells; host or cells: HEK293. The note with it: recombinant HEK293 cells expressing CB1 and G-protein Galpha16; intracellular Ca2+ change against reference agonist. As for the experimental part:
as §1, §2
Results were presented as the percentage change relative to the control (0%: analogous experiment without test substance and without reference agonist, i.e. only with buffer; 100%: analogous experiment without test substance, but with reference agonist in excess), and used to calculate dose/action curves, and IC50 values were determined.
The values of the functional assay compared to the cannabinoid 1 receptor including illustrative selectivities compared to the cannabinoid 2 receptor can be taken from table 1 which follows.

Some results are limits rather than exact numbers.

T2 sequence (P21554 whole entry): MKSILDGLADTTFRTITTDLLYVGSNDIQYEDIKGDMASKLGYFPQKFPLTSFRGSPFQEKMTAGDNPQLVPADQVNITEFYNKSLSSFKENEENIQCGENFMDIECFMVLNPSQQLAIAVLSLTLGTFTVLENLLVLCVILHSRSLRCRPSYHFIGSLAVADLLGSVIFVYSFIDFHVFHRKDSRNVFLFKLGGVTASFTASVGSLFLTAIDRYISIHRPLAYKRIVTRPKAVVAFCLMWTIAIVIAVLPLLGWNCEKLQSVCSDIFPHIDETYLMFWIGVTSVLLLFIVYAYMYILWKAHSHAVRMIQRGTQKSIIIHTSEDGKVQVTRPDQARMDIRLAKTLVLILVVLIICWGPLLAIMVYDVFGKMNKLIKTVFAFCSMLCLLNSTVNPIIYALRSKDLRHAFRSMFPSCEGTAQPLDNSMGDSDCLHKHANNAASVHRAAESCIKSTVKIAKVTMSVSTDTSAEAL
T3 sequence (P34972 whole entry): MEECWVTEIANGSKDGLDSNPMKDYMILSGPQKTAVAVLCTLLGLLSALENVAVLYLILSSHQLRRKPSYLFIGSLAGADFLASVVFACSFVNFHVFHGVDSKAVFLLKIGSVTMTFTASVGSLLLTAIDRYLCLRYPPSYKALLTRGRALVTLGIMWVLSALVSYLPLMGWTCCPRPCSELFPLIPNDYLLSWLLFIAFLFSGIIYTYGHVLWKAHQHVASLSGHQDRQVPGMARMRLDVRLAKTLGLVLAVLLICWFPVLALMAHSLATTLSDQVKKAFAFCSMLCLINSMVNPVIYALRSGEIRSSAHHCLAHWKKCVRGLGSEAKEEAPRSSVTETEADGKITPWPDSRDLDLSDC
T1 sequence (P47746 whole entry): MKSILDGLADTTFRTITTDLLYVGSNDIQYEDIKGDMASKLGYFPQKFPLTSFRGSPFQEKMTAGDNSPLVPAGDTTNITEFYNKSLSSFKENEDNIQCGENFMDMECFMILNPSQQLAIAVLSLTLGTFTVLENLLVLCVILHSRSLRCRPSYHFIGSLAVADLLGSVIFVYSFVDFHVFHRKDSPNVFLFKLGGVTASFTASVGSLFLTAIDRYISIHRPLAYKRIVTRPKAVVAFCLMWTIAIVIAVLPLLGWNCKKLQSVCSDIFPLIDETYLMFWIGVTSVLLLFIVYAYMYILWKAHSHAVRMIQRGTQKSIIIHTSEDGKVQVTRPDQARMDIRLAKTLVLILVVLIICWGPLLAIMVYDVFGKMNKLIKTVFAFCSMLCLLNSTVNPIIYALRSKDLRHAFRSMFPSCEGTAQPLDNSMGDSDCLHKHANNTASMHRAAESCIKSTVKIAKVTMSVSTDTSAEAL

With `CCCCCCC(C)(C)c1ccc([C@@H]2C[C@H](O)CC[C@H]2CCCO)c(O)c1` [CP55.940], in experiment [1], the “fall in the body temperature” value was 5-6 °C.
Consider `CC1(C)C(=O)N(c2ccc(C#N)c(C(F)(F)F)c2)C(=O)N1Cc1ccccc1Nc1ccc(CN2CCNCC2=O)cc1` [Example 1, 4-(4,4-dimethyl-2,5-dioxo-3-{2-[4-(2-oxopiperazin-1-ylmethyl)phenylamino]-benzyl}imidazolidin-1-yl)-2-trifluoromethylbenzonitrile], for which, on hCB1R [2], the Ki came to 34 nM.
As to `CC1(C)C(=O)N(c2ccc(F)c(C(F)(F)F)c2)C(=O)N1Cc1ccccc1Nc1ccc(-c2nnn[nH]2)cc1` [Example 2, 3-(4-fluoro-3-trifluoromethylphenyl)-5,5-dimethyl-1-{2-[4-(1H-tetrazol-5-yl)phenylamino]benzyl}imidazolidine-2,4-dione], the IC50 at hCB2R is more than 10000 nM; at hCB1R [3], 205 nM. In addition, at hCB1R [2], the affinity, expressed as Ki, was 108 nM.
`CC1(C)C(=O)N(c2ccc(F)c(C(F)(F)F)c2)C(=O)N1Cc1ccc(F)cc1Nc1ccc(N2CCCC2=O)cc1` [Example 4, 1-{4-fluoro-2-[4-(2-oxopyrrolidin-1-yl)phenylamino]benzyl}-3-(4-fluoro-3-trifluoromethylphenyl)-5,5-dimethylimidazolidine-2,4-dione] yielded a Ki at hCB1R [2] of 103 nM.
Turning to `CC1(C)C(=O)N(c2ccc(F)c(C(F)(F)F)c2)C(=O)N1Cc1ccc(F)cc1Nc1ccc(-n2cnc3ccccc32)cc1` [Example 5, 1-[2-(4-benzimidazol-1-ylphenylamino)-4-fluorobenzyl]-3-(4-fluoro-3-trifluoromethylphenyl)-5,5-dimethylimidazolidine-2,4-dione], on hCB1R [3], the IC50 turned out to be 6 nM. The same molecule gave a Ki at hCB1R [2] of 4 nM.
At hCB1R [2], `COC(=O)C1CC(=O)N(c2ccc(Nc3cc(F)ccc3CN3C(=O)N(c4ccc(F)c(C(F)(F)F)c4)C(=O)C3(C)C)cc2)C1` (centres unmarked) [Example 6, methyl 1-(4-{5-fluoro-2-[3-(4-fluoro-3-trifluoromethylphenyl)-5,5-dimethyl-2,4-dioxoimidazolidin-1-ylmethyl]phenylamino}phenyl)-5-oxopyrrolidine-3-carboxylate] registered a Ki of 40 nM.
Turning to `CCOc1ccc(Nc2ccc(Nc3cc(F)ccc3CN3C(=O)N(c4ccc(F)c(C(F)(F)F)c4)C(=O)C3(C)C)cc2)nn1` [Example 7, 1-{2-[4-(6-ethoxypyridazin-3-ylamino)phenylamino]-4-fluorobenzyl}-3-(4-fluoro-3-trifluoromethylphenyl)-5,5-dimethyl-imidazolidine-2,4-dione], the IC50 on hCB1R [3] worked out at 32 nM. Further, on hCB1R [2], the Ki was found to be 18 nM.
As for `COc1ccc(Nc2ccc(Nc3cc(F)ccc3CN3C(=O)N(c4ccc(F)c(C(F)(F)F)c4)C(=O)C3(C)C)cc2)nn1` [Example 8, {4-fluoro-2-[4-(6-methoxypyridazin-3-ylamino)phenylamino]benzyl}-3-(4-fluoro-3-trifluoro-methylphenyl)-5,5-dimethylimidazolidine-2,4-dione], the IC50 on hCB1R [3] came to 24 nM. Further, at hCB1R [2], the Ki worked out at 10 nM.
The matching figures for `CC1(C)C(=O)N(c2ccc(F)c(C(F)(F)F)c2)C(=O)N1Cc1ccc(F)cc1Nc1ccc(Nc2ccc(Cl)nn2)cc1` [Example 10, 1-{2-[4-(6-chloropyridazin-3-ylamino)phenylamino]-4-fluorobenzyl}-3-(4-fluoro-3-trifluoromethylphenyl)-5,5-dimethyl-imidazolidine-2,4-dione]: 34 nM and 7 nM.
Turning to `CC1(C)C(=O)N(c2ccc(F)c(C(F)(F)F)c2)C(=O)N1Cc1ccc(F)cc1Nc1ccc(N2CCNCC2=O)cc1` [Example 13, 1-{4-fluoro-2-[4-(2-oxopiperazin-1-yl)phenylamino]benzyl}-3-(4-fluoro-3-trifluoromethylphenyl)-5,5-dimethylimidazolidine-2,4-dione], the IC50 on hCB1R [3] turned out to be 125 nM.
The same measure, in the same setting: next, `CC1(C)C(=O)N(c2ccc(F)c(C(F)(F)F)c2)C(=O)N1Cc1ccc(F)cc1Nc1ccc(N2CCC(O)CC2)cc1` [Example 14, 1-{4-fluoro-2-[4-(4-hydroxypiperidin-1-yl)phenylamino]benzyl}-3-(4-fluoro-3-trifluoromethylphenyl)-5,5-dimethylimidazolidine-2,4-dione]: 9 nM; `CC1(C)C(=O)N(c2ccc(F)c(C(F)(F)F)c2)C(=O)N1Cc1ccc(F)cc1Nc1ccc(C2NC(=O)NC2=O)cc1` (centres unmarked) [Example 15, 1-{2-[4-(2,5-dioxoimidazolidin-4-yl)phenylamino]-4-fluorobenzyl}-3-(4-fluoro-3-trifluoromethylphenyl)-5,5-dimethylimidazolidine-2,4-dione]: 60 nM; `CC1(C)C(=O)N(c2ccc(F)c(C(F)(F)F)c2)C(=O)N1Cc1ccc(F)cc1Nc1ccc(N2CCNC2=O)cc1` [Example 16, 1-{4-fluoro-2-[4-(2-oxoimidazolidin-1-yl)phenylamino]benzyl}-3-(4-fluoro-3-trifluoromethylphenyl)-5,5-dimethylimidazolidine-2,4-dione]: 23 nM.
Still for that read-out and setting: then `CC1(C)C(=O)N(c2ccc(F)c(C(F)(F)F)c2)C(=O)N1Cc1ccc(F)cc1Nc1ccc(OC2CCOCC2)cc1` [Example 18, 1-{4-fluoro-2-[4-(tetrahydropyran-4-yloxy)phenylamino]benzyl}-3-(4-fluoro-3-trifluoromethylphenyl)-5,5-dimethylimidazolidine-2,4-dione], with 93 nM.
